One data set relates to CaNT tumour vasculature. In words: Activity against tumour vasculature measured by fluorescent dye (Hoechst 33342), tumour functional vascular volume. The class given is in vivo. The following applies: fluorescent dye method, CaNT tumour-bearing mice, dye 24 hours after drug treatment; for % Decrease in vascular volume: intraperitoneal, dose not given. The procedure:
(b) Activity Against Tumour Vasculature Measured by Fluorescent Dye
Tumour functional vascular volume of CaNT tumour-bearing mice was measured using the fluorescent dye Hoechst 33342 according to the method of Smith et al (Brit. Jnl. Cancer 1988, 57, 247–253). Five animals were used in control and treated group. The fluorescent dye was dissolved in saline at 6.25 mg/ml and injected intravenously at 10 mg/kg 24 hours after intraperitoneal drug treatment. One minute later, animals were killed and tumours excised and frozen; 10 μm sections were cut at 3 different levels and observed under UV illumination using an Olympus microscope equipped with epifluorescence. Blood vessels were identified by their fluorescent outlines and vascular volume was quantified using a point scoring system based on that described by Chalkley, (Jnl. Natl. Cancer Inst., 1943, 4, 47–53). All estimates were based on counting a minimum of 100 fields from sections cut at the 3 different levels.

The next data set concerns tubulin. Nature of the data set: Tubulin polymerisation assay. It counts as biochemical. The following applies: method of O. Boye et al Med. Chem. Res., 1991, 1, 142-150. The text has this: The ability of the compounds to bind to preparations of mammalian tubulin can be evaluated by a number of methods available in the literature, for example by following temperature initiated tubulin polymerisation by turbidity in the absence and presence of the compound (for example O. Boye et al Med. Chem. Res., 1991, 1, 142–150).

In the next data set the test system is vasculature. The following applies: at maximum tolerated dose; Lancet, 1994, 344, 1267-1271; cited from earlier work.

Each structure is given as a SMILES string.

What is called IC50 is the concentration needed to halve the response being measured. Read a low IC50 as greater potency in that assay.

For the compound `COc1cc2c(c(OC)c1OC)-c1ccc(NC(=O)[C@H](C)N)cc1C(NC(C)=O)CC2` (some centres unmarked) [Example 2, N-[3-(alanylamino)-9,10,11-trimethoxy-6,7-dihydro-5H-dibenzo[a,c]cyclohepten-5-yl]acetamide], the “% Decrease in vascular volume” value in the data set with CaNT tumour vasculature is on record as 95%. The same measure, in the same setting: the result for `COc1cc2c(c(OC)c1OC)-c1ccc(OC(=O)N3CCC(N4CCCCC4)CC3)cc1C(NC(C)=O)CC2` (centres unmarked) [Example 3, N-[3-(4-(1-piperidinyl)piperidinylcarbonyloxy)-9,10,11-trimethoxy-6,7-dihydro-5H-dibenzo[a,c]cyclohepten-5-yl]acetamide] reads 45%. For the compound `COc1cc2c(c(OC)c1OC)-c1ccc(N)cc1C(NC(C)=O)CC2` (centres unmarked) [N-[3-amino-9,10,11-trimethoxy-6,7-dihydro-5H-dibenzo[a,c]cyclohepten-5-yl]acetamide], the “decrease in perfused vascular volume relative to control” value in the data set with CaNT tumour vasculature (50 mg/kg intraperitoneally) was 88%. For the same compound, the midpoint of inhibition with tubulin, the IC50, lay at 58 µM.

Regarding `CC(=O)O[C@@]12CO[C@@H]1C[C@H](O)[C@@]1(C)C(=O)[C@H](O)C3=C(C)[C@@H](OC(=O)[C@H](O)[C@@H](NC(=O)OC(C)(C)C)c4ccccc4)C[C@@](O)([C@@H](OC(=O)c4ccccc4)[C@H]21)C3(C)C` [docetaxel], the “vascular-damaging activity when administered at the MTD” value with vasculature was “no vascular-damaging activity”.

The record behind these values is patent publication US7135502B1, “Colchinol derivatives as vascular damaging agents” (priority 1999, dated 2006).
